Biological target: T1, Jarid1A (Homo sapiens, UniProt P29375)
T1 construct: purchased BPS Bioscience 50110
T1 sequence (P29375 1-1090): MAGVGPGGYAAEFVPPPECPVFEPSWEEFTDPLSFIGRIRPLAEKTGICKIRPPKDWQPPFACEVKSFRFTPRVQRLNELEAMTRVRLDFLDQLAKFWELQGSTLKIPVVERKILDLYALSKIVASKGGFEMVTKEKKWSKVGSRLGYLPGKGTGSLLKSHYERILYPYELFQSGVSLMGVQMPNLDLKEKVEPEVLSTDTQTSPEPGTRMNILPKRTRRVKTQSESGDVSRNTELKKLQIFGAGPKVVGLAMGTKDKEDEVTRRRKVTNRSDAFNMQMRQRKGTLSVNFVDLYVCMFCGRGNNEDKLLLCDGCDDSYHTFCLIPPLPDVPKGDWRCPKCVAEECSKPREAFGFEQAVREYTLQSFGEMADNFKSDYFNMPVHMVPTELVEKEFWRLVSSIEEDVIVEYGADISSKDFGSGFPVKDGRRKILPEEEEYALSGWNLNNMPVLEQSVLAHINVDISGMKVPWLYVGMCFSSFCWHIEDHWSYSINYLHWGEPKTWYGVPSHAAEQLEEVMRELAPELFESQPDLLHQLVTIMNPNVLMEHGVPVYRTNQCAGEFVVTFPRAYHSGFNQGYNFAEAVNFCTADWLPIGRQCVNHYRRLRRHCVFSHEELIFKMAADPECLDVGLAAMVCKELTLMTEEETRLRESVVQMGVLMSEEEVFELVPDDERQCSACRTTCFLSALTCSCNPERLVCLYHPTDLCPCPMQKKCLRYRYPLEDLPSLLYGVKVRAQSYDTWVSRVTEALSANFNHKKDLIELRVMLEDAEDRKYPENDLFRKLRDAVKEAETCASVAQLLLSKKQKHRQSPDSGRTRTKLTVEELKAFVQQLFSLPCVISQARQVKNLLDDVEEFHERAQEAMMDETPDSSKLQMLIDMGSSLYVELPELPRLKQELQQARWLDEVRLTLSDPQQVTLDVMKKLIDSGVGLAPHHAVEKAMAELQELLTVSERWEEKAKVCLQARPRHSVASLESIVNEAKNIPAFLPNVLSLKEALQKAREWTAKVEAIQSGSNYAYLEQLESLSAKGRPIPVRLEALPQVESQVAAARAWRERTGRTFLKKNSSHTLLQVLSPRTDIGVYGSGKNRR
Assay: Jarid1A in vitro enzyme inhibition assay (TR-FRET)
Assay type: biochemical
How it was run: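 Demethylation of 300 nM biotin-H3K4me3 peptide by 1 nM baculovirus-expressed Jarid1A (aa 1–1090) with 2 μM α-ketoglutarate, Fe(II) and ascorbate, pH 7.3, 30 min at room temperature. Stopped with EDTA; H3K4me1-2 product detected by TR-FRET (Eu anti-H3K4me1-2/streptavidin-APC). IC50 fitted from 665/615 ratio over 11-point dilutions.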

`CC(C)Oc1nc(O)c2ccncc2n1` [Example 1, 2-propan-2-yloxy-3H-pyrido[3,4-d]pyrimidin-4-one] and `CC(C)OCCOc1nc(O)c2ccncc2n1` [Example 29, 2-(2-propan-2-yloxyethoxy)pyrido[3,4-d]pyrimidin-4-ol] fall in the same range of IC50: 0.1 to 1 µM for the first, 0.1 to 1 µM for the second.

`CCOc1nc(O)c2ccncc2n1` [Example 2, 2-ethoxypyrido[3,4-d]pyrimidin-4-ol] and `CC(CO)COc1nc(O)c2ccncc2n1` (stereo not drawn) [Example 25, 2-(3-hydroxy-2-methylpropoxy)pyrido[3,4-d]pyrimidin-4-ol] cannot be ordered by IC50: no more than 0.1 µM for the first, 0.1 to 1 µM for the second.

`Oc1nc(OCCOCC(F)(F)F)nc2cnccc12` [Example 23, 2-[2-(2,2,2-trifluoroethoxy)ethoxy]pyrido[3,4-d]pyrimidin-4-ol] and `CC(C)(O)CCOc1nc(O)c2ccncc2n1` [Example 24, 2-(3-hydroxy-3-methylbutoxy)pyrido[3,4-d]pyrimidin-4-ol] cannot be ordered by IC50: 0.1 to 1 µM for the first, no more than 0.1 µM for the second.

`Oc1nc(OCC2CCCO2)nc2cnccc12` (stereo not drawn) [Example 26, 2-(oxolan-2-ylmethoxy)pyrido[3,4-d]pyrimidin-4-ol] and `Oc1nc(OCC2CCOC2)nc2cnccc12` (stereo not drawn) [Example 27, 2-(oxolan-3-ylmethoxy)pyrido[3,4-d]pyrimidin-4-ol] fall in the same range of IC50: 0.1 to 1 µM for the first, 0.1 to 1 µM for the second.

`CC(=O)N(C)CCOc1nc(O)c2ccncc2n1` [Example 28, N-[2-(4-hydroxypyrido[3,4-d]pyrimidin-2-yl)oxyethyl]-N-methylacetamide] and `O=C(NCCOc1nc(O)c2ccncc2n1)c1ccccc1` [Example 31, N-[2-(4-hydroxypyrido[3,4-d]pyrimidin-2-yl)oxyethyl]benzamide] cannot be ordered by IC50: 0.1 to 1 µM for the first, no more than 0.1 µM for the second.

`Oc1nc(OCCOCc2ccccc2)nc2cnccc12` [Example 30, 2-(2-phenylmethoxyethoxy)pyrido[3,4-d]pyrimidin-4-ol] and `Oc1nc(Oc2ccccc2)nc2cnccc12` [Example 34, 2-phenoxypyrido[3,4-d]pyrimidin-4-ol] cannot be ordered by IC50: 0.1 to 1 µM for the first, no more than 0.1 µM for the second.

First: N#Cc1cccc(COc2nc(O)c3ccncc3n2)c1 [Example 32, 3-[(4-hydroxypyrido[3,4-d]pyrimidin-2-yl)oxymethyl]benzonitrile]
Second: Oc1nc(OCc2cccc(F)c2)nc2cnccc12 [Example 179, 2-[(3-fluorophenyl)methoxy]pyrido[3,4-d]pyrimidin-4-ol]
The IC50 of the first is lower: 0.1 to 1 µM for the first, 1 to 10 µM for the second. The first is the more potent here.

`Cn1ccc(COc2nc(O)c3ccncc3n2)n1` [Example 33, 2-[(1-methylpyrazol-3-yl)methoxy]pyrido[3,4-d]pyrimidin-4-ol] and `Oc1nc(OCc2ccccc2F)nc2cnccc12` [Example 178, 2-[(2-fluorophenyl)methoxy]pyrido[3,4-d]pyrimidin-4-ol] fall in the same range of IC50: 1 to 10 µM for the first, 1 to 10 µM for the second.

`Oc1nc(OCc2ccccc2C(F)(F)F)nc2cnccc12` [Example 177, 2-{[2-(trifluoromethyl)phenyl]methoxy}pyrido[3,4-d]pyrimidin-4-ol] and `Oc1nc(OCc2cccc(F)c2F)nc2cnccc12` [Example 181, 2-[(2,3-difluorophenyl)methoxy]pyrido[3,4-d]pyrimidin-4-ol] fall in the same range of IC50: 1 to 10 µM for the first, 1 to 10 µM for the second.

`Oc1nc(OCc2ccc(F)cc2)nc2cnccc12` [Example 180, 2-[(4-fluorophenyl)methoxy]pyrido[3,4-d]pyrimidin-4-ol] and `Oc1nc(OCc2cc(F)ccc2F)nc2cnccc12` [Example 182, 2-[(2,5-difluorophenyl)methoxy]pyrido[3,4-d]pyrimidin-4-ol] fall in the same range of IC50: 1 to 10 µM for the first, 1 to 10 µM for the second.

First: Oc1nc(OCc2c(F)cccc2F)nc2cnccc12 [Example 183, 2-[(2,6-difluorophenyl)methoxy]pyrido[3,4-d]pyrimidin-4-ol]
Second: Oc1nc(OCc2coc3ccccc23)nc2cnccc12 [Example 193, 2-(1-benzofuran-3-ylmethoxy)pyrido[3,4-d]pyrimidin-4-ol]
The IC50 of the first is higher: 1 to 10 µM for the first, 0.1 to 1 µM for the second.

`Oc1nc(OCc2cccc3ccccc23)nc2cnccc12` [Example 184, 2-(naphthalen-1-ylmethoxy)pyrido[3,4-d]pyrimidin-4-ol] and `Oc1nc(OCc2ccc3ccccc3c2)nc2cnccc12` [Example 187, 2-(naphthalen-2-ylmethoxy)pyrido[3,4-d]pyrimidin-4-ol] fall in the same range of IC50: 1 to 10 µM for the first, 1 to 10 µM for the second.

`Oc1nc(OCc2ccccc2-c2ccccc2)nc2cnccc12` [Example 185, 2-[(2-phenylphenyl)methoxy]pyrido[3,4-d]pyrimidin-4-ol] and `Oc1nc(OCc2cccc(-c3ccccc3)c2)nc2cnccc12` [Example 186, 2-[(3-phenylphenyl)methoxy]pyrido[3,4-d]pyrimidin-4-ol] fall in the same range of IC50: 1 to 10 µM for the first, 1 to 10 µM for the second.

`Oc1nc(OCC2CCCc3ccccc32)nc2cnccc12` (stereo not drawn) [Example 188, 2-(1,2,3,4-tetrahydronaphthalen-1-ylmethoxy)pyrido[3,4-d]pyrimidin-4-ol] and `Oc1nc(OCC2CCc3ccccc32)nc2cnccc12` (stereo not drawn) [Example 190, 2-(2,3-dihydro-1H-inden-1-ylmethoxy)pyrido[3,4-d]pyrimidin-4-ol] fall in the same range of IC50: 0.1 to 1 µM for the first, 0.1 to 1 µM for the second.

First: Oc1nc(OC2Cc3ccccc3C2)nc2cnccc12 [Example 189, 2-(2,3-dihydro-1H-inden-2-yloxy)pyrido[3,4-d]pyrimidin-4-ol]
Second: Oc1nc(OC2CCc3ccccc32)nc2cnccc12 (stereo not drawn) [Example 192, 2-(2,3-dihydro-1H-inden-1-yloxy)pyrido[3,4-d]pyrimidin-4-ol]
The IC50 of the first is lower: 0.1 to 1 µM for the first, 1 to 10 µM for the second.

Compared with `Oc1nc(OCC2CCc3ccccc3C2)nc2cnccc12` (stereo not drawn) [Example 191, 2-(1,2,3,4-tetrahydronaphthalen-2-ylmethoxy)pyrido[3,4-d]pyrimidin-4-ol], `Oc1nc(OC2CCCc3ccccc32)nc2cnccc12` (stereo not drawn) [Example 196, 2-(1,2,3,4-tetrahydronaphthalen-1-yloxy)pyrido[3,4-d]pyrimidin-4-ol] is higher in IC50: 0.1 to 1 µM for the first, 1 to 10 µM for the second. The first is the more potent here.

First: Oc1nc(OCC2COc3ccccc32)nc2cnccc12 (stereo not drawn) [Example 194, 2-(2,3-dihydro-1-benzofuran-3-ylmethoxy)pyrido[3,4-d]pyrimidin-4-ol]
Second: Oc1nc(OCC2CCOc3ccccc32)nc2cnccc12 (stereo not drawn) [Example 195, 2-(3,4-dihydro-2H-1-benzopyran-4-ylmethoxy)pyrido[3,4-d]pyrimidin-4-ol]
The IC50 of the first is higher: 1 to 10 µM for the first, 0.1 to 1 µM for the second.

`Oc1nc(OC2CCOc3ccccc32)nc2cnccc12` (stereo not drawn) [Example 197, 2-(3,4-dihydro-2H-1-benzopyran-4-yloxy)pyrido[3,4-d]pyrimidin-4-ol] and `Cn1cnc(-c2nccc3c(=O)[nH]cnc23)c1` [Example 198, 8-(1-methylimidazol-4-yl)-3H-pyrido[3,4-d]pyrimidin-4-one] fall in the same range of IC50: 0.1 to 1 µM for the first, 0.1 to 1 µM for the second.

Reference: patent publication US10526327B2, “Histone demethylase inhibitors” (CELGENE QUANTICEL RESEARCH, INC., priority 2013, dated 2020)
